From ChEMBL document CHEMBL1201862, “PubChem BioAssay data set” (2004)
Active and inactive are the calls of the source.

Tests used:
Assay type in all cases: functional
[1] = molecular target: T1, Sentrin-specific protease 6 (Homo sapiens, UniProt Q9GZR1);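 note: Luminescence-based dose-response confirmatory assay of SENP6 inhibition, following up an ultra-high-throughput screen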
T1 sequence (Q9GZR1 whole entry): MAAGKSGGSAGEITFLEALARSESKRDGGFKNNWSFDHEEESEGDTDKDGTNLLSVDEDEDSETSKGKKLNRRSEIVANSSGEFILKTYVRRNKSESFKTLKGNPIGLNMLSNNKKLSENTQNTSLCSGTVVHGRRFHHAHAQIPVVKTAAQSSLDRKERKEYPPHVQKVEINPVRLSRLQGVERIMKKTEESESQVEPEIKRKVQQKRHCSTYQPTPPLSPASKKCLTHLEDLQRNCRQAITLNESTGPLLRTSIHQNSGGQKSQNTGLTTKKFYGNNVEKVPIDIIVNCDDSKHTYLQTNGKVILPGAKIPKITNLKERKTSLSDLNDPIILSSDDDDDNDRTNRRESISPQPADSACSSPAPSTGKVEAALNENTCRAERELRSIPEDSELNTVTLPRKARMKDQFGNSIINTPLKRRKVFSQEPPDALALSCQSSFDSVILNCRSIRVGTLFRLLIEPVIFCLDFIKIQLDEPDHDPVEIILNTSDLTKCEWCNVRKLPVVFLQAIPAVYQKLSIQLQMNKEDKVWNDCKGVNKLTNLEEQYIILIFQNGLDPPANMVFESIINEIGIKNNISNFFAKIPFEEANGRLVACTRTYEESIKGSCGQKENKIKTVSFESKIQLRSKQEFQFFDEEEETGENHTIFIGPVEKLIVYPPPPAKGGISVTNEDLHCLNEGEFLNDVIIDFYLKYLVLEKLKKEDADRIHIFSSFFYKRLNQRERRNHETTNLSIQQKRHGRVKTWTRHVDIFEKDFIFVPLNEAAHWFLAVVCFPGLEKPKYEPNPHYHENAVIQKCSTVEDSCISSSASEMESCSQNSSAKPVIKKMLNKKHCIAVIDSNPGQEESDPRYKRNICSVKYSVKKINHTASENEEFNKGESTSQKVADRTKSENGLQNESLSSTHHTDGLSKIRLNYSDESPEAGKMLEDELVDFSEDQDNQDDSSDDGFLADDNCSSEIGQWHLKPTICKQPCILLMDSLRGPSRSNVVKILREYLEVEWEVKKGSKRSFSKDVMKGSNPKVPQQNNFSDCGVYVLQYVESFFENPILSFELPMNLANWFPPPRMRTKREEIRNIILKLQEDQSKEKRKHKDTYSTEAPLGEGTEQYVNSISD

[2] = molecular target: T2, Sentrin-specific protease 7 (Homo sapiens, UniProt Q9BQF6);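 note: Luminescence-based dose-response confirmation of ultra-high-throughput screening hits, measuring inhibition of SENP7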
T2 sequence (Q9BQF6 whole entry): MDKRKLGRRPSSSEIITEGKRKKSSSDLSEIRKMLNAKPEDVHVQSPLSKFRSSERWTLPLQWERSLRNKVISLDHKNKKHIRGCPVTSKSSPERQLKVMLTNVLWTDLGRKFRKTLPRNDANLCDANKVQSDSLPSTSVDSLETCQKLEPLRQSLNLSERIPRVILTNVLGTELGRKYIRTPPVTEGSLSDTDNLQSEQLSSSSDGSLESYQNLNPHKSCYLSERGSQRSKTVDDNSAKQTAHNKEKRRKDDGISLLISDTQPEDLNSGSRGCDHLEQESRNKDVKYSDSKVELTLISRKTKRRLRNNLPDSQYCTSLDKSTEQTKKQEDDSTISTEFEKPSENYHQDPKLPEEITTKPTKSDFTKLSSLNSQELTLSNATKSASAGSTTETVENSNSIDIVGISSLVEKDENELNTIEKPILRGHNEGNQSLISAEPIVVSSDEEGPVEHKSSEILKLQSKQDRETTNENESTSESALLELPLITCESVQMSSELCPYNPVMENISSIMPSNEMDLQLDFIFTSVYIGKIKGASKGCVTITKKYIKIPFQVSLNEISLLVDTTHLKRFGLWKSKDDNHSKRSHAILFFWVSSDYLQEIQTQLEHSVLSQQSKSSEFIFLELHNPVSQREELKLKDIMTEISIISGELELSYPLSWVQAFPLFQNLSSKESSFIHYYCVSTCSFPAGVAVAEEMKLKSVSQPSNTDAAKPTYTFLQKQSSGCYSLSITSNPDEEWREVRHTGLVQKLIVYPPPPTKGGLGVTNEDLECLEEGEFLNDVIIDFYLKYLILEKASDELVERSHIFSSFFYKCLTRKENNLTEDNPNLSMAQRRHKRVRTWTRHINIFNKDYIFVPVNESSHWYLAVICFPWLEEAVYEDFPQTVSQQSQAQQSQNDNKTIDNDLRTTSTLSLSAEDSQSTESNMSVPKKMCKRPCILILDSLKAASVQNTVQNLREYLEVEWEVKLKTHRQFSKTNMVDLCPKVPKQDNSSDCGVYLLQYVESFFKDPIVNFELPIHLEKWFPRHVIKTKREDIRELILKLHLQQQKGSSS

Caspase-3 = molecular target: T3, Caspase-3 (Homo sapiens, UniProt P42574);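 note: Dose-response selectivity test against caspase-3 for candidate inhibitors of sentrin-specific proteases (SENPs)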
T3 sequence (P42574 whole entry): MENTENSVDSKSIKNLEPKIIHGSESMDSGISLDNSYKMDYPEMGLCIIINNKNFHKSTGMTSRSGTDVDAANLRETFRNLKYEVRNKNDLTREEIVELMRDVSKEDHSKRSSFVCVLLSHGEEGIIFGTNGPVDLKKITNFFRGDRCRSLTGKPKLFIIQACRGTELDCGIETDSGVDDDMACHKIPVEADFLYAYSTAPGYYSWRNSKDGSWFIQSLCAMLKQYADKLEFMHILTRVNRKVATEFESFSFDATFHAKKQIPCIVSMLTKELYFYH

[3] = molecular target: T4, High affinity choline transporter 1 (Homo sapiens, UniProt Q9GZV3); test: human choline transporter blockers, potency – cell-based, 10-point CRC, membrane potential dye, dose response (AID 588401);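 note: membrane potential dye fluorescence of choline-evoked depolarization via CHT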
T4 sequence (Q9GZV3 whole entry): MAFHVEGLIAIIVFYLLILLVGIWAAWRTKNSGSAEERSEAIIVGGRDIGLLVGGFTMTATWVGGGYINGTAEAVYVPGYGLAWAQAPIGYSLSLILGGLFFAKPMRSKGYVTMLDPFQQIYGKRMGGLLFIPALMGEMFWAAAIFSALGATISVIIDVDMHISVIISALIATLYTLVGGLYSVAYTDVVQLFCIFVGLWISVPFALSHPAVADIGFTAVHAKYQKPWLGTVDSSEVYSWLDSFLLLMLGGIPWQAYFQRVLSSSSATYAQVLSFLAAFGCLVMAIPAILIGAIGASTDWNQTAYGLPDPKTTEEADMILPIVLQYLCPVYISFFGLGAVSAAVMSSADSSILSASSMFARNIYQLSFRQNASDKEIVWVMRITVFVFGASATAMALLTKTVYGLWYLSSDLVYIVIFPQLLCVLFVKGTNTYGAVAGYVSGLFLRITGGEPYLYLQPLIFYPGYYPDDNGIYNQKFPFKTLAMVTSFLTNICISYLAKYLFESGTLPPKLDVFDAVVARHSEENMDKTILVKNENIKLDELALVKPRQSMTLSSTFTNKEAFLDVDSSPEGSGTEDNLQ

[4] = molecular target: T4, High affinity choline transporter 1; test: human choline transporter blockers, potency – cell-based, 5-point CRC, membrane potential dye, dose response (AID 504840)
[5] = molecular target: T5, Sentrin-specific protease 8 (Homo sapiens, UniProt Q96LD8);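 note: luminescence read-out of SENP8 inhibition, dose-response confirmation following an ultra-high-throughput screen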
T5 sequence (Q96LD8 whole entry): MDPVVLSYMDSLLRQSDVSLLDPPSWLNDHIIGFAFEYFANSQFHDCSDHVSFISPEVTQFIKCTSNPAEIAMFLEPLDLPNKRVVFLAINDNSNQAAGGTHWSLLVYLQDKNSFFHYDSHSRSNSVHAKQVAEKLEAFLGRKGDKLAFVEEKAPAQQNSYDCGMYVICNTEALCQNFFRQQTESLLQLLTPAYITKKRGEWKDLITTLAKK

[6] = molecular target: Multidrug resistance protein CDR2 (Candida albicans (strain SC5314 / ATCC MYA-2876) (Yeast), UniProt P78595); test: blockers of Nile Red efflux by Candida CDR2 – S. cerevisiae AD1-8u, singleplex, Cherry Pick2 set, dose response (AID 623994); settings: read-out: EC50_MICROM
[7] = molecular target: T6, Ubiquitin-conjugating enzyme E2 N (Homo sapiens, UniProt P61088);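 note: Dose-response confirmation in a TR-FRET assay detecting UBC13-driven polyubiquitin chain formation, inhibition measured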
T6 sequence (P61088 whole entry): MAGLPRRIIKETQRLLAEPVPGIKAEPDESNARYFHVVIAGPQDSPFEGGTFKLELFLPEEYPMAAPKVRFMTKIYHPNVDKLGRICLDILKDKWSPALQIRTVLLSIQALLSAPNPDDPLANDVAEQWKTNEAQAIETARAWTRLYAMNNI

[8] = (§1) Counterscreen for antagonists of the orexin 1 receptor (OX1R; HCRTR1): Fluorescence-based cell-based high throughput dose response assay to identify antagonists of the parental CHO cell line. [Related pubchem assays (depositor defined):AID434989, AID435008, AID463079, AID485270, AID492963, AID492964, AID492965, AID493232, AID504699, AID504701]
[9] = molecular target: T7, Orexin/Hypocretin receptor type 1 (Homo sapiens, UniProt O43613); test: (§2) Fluorescence-based cell-based high throughput dose response assay for antagonists of the orexin 1 receptor (OX1R; HCRTR1). [Related pubchem assays (depositor defined):AID434989, AID435008, AID463079, AID485270, AID492963, AID492964, AID492965, AID493232, AID504717, AID504718]
T7 sequence (O43613 whole entry): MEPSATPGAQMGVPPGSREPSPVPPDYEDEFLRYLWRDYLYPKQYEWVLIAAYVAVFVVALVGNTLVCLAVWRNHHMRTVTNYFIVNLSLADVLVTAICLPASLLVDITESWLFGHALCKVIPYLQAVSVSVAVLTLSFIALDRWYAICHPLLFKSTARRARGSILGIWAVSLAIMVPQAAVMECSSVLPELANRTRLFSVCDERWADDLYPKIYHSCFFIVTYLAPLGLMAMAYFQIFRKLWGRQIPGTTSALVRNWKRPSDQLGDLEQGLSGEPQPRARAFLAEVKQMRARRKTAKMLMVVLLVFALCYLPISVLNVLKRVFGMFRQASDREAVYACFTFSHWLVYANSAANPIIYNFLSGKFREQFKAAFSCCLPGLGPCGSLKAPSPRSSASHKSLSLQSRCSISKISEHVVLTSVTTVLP

[10] = molecular target: Multidrug resistance protein CDR1 (Candida albicans, UniProt P43071); test: Candida albicans Cdr1 pump inhibition curves – singleplex, Cherry Pick2 set, dose response (AID 623996); settings: read-out: EC50_MICROM
[11] = Luminescence Cell-Based Dose Retest to Confirm Inhibitors of Cancer Stem Cells. [Related pubchem assays (depositor defined):AID2717, AID2721]; settings: Homo sapiens
CHO-K1 = test: as §1, with “Homogeneous time resolved fluorescence (HTRF)-based” for “Fluorescence-based”, “cell-based” for “cell-based high throughput”, “CHO-K1” for “CHO”; settings: Cricetulus griseus;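 note: potency for inhibition of ATP-stimulated IP1 production as antagonists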
[12] = molecular target: T7, Orexin/Hypocretin receptor type 1; test: as §2, with “Homogeneous Time Resolved Fluorescence (HTRF)-based” for “Fluorescence-based”
[13] = molecular target: Benomyl/methotrexate resistance protein (Candida albicans, UniProt P28873); test: Candida albicans Mdr1 pump blockade titration – singleplex, Cherry Pick2 set, dose response (AID 623992); settings: read-out: EC50_MICROM
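Throughout, for AC50: cells exposed to compound for roughly 70 hours or longer before luminescence read.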

Chain of Multidrug resistance protein CDR1 (P43071 whole entry, looked up): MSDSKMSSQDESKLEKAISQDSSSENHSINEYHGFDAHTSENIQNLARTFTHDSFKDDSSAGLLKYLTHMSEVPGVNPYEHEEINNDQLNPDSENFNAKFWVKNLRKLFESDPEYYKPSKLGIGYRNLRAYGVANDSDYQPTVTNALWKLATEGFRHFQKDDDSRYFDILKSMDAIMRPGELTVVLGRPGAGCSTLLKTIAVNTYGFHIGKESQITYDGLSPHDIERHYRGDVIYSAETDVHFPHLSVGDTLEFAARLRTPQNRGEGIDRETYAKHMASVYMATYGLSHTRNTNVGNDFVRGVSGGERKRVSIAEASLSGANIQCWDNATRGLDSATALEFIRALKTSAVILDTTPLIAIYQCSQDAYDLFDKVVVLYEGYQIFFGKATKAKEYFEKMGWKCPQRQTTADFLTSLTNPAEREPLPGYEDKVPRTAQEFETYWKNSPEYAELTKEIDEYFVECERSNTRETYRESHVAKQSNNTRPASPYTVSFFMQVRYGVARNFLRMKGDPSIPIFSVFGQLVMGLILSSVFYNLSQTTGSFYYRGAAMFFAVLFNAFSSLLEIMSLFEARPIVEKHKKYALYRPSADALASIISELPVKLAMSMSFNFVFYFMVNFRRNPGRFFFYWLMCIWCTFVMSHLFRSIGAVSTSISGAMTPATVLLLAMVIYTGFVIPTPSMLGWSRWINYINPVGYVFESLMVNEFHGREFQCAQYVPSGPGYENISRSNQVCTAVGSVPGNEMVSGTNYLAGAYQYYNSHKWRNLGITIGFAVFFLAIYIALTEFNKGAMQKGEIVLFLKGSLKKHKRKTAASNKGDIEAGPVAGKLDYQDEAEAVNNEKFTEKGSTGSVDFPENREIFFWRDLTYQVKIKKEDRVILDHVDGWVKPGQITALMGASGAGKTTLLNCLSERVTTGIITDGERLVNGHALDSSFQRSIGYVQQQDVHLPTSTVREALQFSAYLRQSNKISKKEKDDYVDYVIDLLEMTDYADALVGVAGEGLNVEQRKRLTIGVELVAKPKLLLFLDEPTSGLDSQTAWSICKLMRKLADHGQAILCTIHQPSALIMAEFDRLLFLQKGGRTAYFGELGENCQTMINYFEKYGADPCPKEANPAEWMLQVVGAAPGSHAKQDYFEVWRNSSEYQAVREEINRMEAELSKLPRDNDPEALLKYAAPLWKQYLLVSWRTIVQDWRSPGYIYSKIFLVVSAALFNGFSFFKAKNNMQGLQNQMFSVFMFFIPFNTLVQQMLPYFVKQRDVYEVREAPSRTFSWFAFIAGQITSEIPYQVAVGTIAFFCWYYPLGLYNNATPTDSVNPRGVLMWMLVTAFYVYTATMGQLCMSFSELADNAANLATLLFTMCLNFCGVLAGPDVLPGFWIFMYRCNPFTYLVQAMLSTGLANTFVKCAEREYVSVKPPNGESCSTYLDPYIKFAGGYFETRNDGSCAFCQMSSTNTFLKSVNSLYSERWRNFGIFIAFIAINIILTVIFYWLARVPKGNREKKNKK
Chain of Multidrug resistance protein CDR2 (P78595 whole entry): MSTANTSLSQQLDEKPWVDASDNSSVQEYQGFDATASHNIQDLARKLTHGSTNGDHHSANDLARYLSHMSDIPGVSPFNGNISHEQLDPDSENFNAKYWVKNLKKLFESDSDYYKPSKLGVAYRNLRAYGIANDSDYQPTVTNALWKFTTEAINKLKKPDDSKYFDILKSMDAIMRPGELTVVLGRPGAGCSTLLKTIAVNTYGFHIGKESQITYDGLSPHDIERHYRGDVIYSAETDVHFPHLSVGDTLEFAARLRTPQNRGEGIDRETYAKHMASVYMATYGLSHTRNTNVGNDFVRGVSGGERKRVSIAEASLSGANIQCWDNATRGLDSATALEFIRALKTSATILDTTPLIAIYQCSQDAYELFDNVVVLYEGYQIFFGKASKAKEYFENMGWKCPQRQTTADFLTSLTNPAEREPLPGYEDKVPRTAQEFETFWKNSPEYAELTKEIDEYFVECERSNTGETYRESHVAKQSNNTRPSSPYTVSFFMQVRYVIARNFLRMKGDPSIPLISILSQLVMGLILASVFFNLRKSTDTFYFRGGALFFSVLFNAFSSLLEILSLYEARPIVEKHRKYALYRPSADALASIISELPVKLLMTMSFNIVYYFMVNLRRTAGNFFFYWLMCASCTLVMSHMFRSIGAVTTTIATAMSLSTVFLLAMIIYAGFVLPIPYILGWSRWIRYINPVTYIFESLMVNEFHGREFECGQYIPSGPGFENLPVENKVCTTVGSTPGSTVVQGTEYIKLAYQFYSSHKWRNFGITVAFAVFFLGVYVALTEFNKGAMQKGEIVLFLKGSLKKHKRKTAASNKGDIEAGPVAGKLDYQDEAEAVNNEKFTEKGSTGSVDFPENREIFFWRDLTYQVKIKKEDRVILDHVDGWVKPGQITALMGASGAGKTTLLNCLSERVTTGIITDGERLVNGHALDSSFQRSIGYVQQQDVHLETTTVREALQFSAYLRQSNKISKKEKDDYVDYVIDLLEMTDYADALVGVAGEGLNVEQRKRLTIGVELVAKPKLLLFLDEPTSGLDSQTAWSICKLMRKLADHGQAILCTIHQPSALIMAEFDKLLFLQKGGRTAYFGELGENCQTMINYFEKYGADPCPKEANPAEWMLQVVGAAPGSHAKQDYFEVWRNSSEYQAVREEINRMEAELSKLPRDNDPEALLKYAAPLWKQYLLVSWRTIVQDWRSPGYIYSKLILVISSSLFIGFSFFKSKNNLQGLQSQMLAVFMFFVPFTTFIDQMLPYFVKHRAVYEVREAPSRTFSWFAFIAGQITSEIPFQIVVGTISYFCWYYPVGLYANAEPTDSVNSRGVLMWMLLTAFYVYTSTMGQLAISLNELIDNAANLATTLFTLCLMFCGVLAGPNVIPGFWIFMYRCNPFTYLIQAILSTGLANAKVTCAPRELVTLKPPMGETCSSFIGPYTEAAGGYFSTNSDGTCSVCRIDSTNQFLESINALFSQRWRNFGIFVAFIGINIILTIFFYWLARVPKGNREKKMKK
Chain of Benomyl/methotrexate resistance protein (P28873 whole entry): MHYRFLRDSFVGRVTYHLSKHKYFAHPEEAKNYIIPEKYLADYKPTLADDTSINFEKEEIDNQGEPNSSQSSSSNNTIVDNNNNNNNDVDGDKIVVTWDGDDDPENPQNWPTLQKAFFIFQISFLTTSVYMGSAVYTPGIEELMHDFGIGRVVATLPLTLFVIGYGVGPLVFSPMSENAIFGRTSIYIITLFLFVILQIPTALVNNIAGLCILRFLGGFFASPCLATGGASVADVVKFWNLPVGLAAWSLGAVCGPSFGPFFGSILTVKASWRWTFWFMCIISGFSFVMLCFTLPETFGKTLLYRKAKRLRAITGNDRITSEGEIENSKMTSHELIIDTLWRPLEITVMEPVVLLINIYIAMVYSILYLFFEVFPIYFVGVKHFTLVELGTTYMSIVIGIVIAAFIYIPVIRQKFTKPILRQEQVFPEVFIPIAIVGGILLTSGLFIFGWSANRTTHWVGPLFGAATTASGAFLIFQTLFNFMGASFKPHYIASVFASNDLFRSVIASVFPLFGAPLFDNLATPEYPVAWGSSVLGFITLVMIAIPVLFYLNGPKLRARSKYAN

IC50 [1] | IC50 [2] | IC50 (Caspase-3) | IC50 [3] | IC50 [4] | SMILES | IC50 [5] | EC50 [6] | IC50 [7] | IC50 [8] | IC50 [9] | EC50 [10] | AC50 [11] | IC50 (CHO-K1) | IC50 [12] | EC50 [13]
10.8 µM (active) | 4.57 µM (active) | 8.4 µM (active) | 3.4 µM (active) | 3.99 µM (active) | Cn1c(SCc2ccc(C#N)cc2Cl)nc2ccccc21 | 14.8 µM (active) | – | – | – | – | – | – | – | – | –
– | – | – | – | – | COc1cccc(-c2sc3ccc(OC)cc3c2-c2ccc(OCCN(C)C)cc2)c1 | – | 15.2 µM (active) | > 20 µM (inactive) | 17.5 µM (inactive) | 15.8 µM (inactive) | 26.8 µM (active) | 3.37 µM (active) | > 66.2 µM (inactive) | > 66.2 µM (inactive) | 32.1 µM (active)
